According to patent publication US7476677B2, “Substituted thieno- and thiazolo- [2,3-d]pyrimidines and [2,3-c]pyridines as inhibitors of Tie2” (AstraZeneca AB, priority 2004, dated 2009):

How the values were obtained:
[1] = molecular target: T1, Tie2 receptor tyrosine kinase (Homo sapiens, UniProt Q02763); assay: In vitro receptor tyrosine kinase inhibition assay (Test (a), ELISA based); type: biochemical; details: recombinant human kinase domain lysate, synthetic peptide substrate, ATP 5 micromolar or Km
T1 construct: consist of only the intracellular portion C-terminal portion of the respective receptor, within which is found the kinase domain; made in house; host or cells: baculovirus/Sf21 insect cells, used as cleared lysate
Protocol: a. In Vitro Receptor Tyrosine Kinase Inhibition Assay
To test for inhibition of Tie2 receptor tyrosine kinase, compounds are evaluated in a non-cell based protein kinase assay by their ability to inhibit the protein kinase enzyme phosphorylation of a tyrosine containing polypeptide substrate in an ELISA based microtitre plate assay. In this particular case, the assay was to determine the IC50, for three different recombinant human tyrosine kinases Tie2, KDR and Flt.
To facilitate production of the tyrosine kinases, recombinant receptor genes were produced using standard molecular biology cloning and mutagenesis techniques. […]
Constitutive kinase activity of these recombinant proteins was determined by their ability to phosphorylate a synthetic peptide (made up of a random co-polymer of Glutamic Acid, Alanine and Tyrosine in the ratio of 6:3:1). […]
The immobilised phospho-peptide product of the reaction was detected by immunological methods. […] Following extensive washing with PBS-T, HRP activity in each well of the plate was measured colorimetrically using 22′-Azino-di-[3-ethylbenzthiazoline sulfonate (6)] diammonium salt crystals ABTS (Sigma P4922—prepared as per manufactures instructions) as a substrate incubated for 30-45 minutes to allow colour development, before 100 ul of 1M H2SO4 was added to stop the reaction. […]

Tie2 receptor = molecular target: T2, Tie2 receptor (Homo sapiens, UniProt Q02763); assay: Cellular Tie2 autophosphorylation assay (Test (b)); type: cell-based; details: Ang1 ligand stimulated Tie2 autophosphorylation, e.g. EA.hy926/B3 cells, western blot
T2 construct: one can use natural cell lines or primary cells which are known to express the receptor of choice; endogenous in cells; host or cells: EA.hy926/B3 cells (HUVEC named as alternative)
Description: b. Cellular Tie2 Autophosphorylation Assay
This assay is based on measuring the ability of compounds to inhibit autophosphorylation of the Tie2 receptor which normally leads to the production of “activated” receptor that in turn initiates the particular signal transduction pathways associated with the receptor function.
Autophosphorylation can be achieved by a number of means. It is known that expression of recombinant kinase domains in baculoviral systems can lead to the production of phosphorylated and activated receptor. […] In these cases the natural, external cell surface domain of the receptor has been replaced with that of a domain which is known to be readily dimerised via the addition of the appropriate ligand (e.g. TrkA-Tie2/NGF ligand (Marron, M. B., et al., 2000 Journal of Biological Chemistry: 275:39741-39746) or C-fms-Tie-1/CSF-1 ligand (Kontos, C. D., et al., 2002 Molecular and Cellular Biology: 22, 1704-1713). Thus when the chimaeric receptor expressed in a host cell line and the respective ligand is added, this induces autophosphorylation of the chimeric receptor's kinase domain. This approach has the advantage of often allowing a known (and often easily obtained) ligand to be used instead of having to identify and isolate the natural ligand for each receptor of interest. […]

T2 sequence (Q02763 23-1124): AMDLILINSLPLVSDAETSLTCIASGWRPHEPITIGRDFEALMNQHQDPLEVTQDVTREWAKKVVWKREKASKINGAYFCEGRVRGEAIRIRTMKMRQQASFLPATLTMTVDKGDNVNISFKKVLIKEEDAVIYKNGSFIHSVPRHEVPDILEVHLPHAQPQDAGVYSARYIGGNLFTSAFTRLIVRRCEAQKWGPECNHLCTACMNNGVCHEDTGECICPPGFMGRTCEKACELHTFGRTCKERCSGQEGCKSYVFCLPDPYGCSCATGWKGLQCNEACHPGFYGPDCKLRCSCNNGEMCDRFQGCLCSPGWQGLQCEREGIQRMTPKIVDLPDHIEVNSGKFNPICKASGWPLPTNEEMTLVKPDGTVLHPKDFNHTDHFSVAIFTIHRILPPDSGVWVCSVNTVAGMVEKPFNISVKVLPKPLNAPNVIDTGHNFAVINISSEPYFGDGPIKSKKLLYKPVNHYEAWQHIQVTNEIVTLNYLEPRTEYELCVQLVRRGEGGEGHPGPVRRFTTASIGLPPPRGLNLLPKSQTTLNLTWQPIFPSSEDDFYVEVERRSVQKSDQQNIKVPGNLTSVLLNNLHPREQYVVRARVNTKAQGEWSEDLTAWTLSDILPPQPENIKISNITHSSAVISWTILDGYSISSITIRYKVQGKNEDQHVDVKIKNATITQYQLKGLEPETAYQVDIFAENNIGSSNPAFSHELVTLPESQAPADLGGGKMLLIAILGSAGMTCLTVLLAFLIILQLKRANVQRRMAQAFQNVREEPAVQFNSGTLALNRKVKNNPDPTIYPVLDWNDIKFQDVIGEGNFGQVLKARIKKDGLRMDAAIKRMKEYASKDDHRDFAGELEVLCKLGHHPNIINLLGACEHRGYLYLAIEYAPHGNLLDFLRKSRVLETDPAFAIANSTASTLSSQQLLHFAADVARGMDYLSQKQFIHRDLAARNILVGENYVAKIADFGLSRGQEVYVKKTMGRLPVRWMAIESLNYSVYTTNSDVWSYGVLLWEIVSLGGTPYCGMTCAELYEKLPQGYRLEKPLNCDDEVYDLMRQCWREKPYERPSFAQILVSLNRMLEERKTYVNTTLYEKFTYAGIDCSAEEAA
T1 sequence (Q02763 770-1124 limits assumed): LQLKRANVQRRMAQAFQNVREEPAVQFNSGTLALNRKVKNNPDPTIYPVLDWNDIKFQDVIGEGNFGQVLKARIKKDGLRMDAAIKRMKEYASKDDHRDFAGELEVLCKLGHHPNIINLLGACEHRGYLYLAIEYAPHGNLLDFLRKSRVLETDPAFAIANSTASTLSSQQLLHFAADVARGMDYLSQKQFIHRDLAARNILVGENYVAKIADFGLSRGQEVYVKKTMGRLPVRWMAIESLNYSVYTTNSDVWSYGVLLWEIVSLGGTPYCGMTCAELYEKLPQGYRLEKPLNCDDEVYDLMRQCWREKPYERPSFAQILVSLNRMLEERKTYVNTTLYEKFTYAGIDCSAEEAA

## Cn1cnc(-c2cccc(NC(=O)Nc3cccc(F)c3)c2)c1-c1cc2c(N)ncnc2s1 [Example 1, N-{3-[5-(4-Aminothieno[2,3-d]pyrimidin-6-yl)-1-methyl-1H-imidazol-4-yl]phenyl}-N′-(3-fluorophenol)urea]
[1]
  IC50: 16 µM
Tie2 receptor
  IC50: 0.4 µM
